The values that follow come from PubChem BioAssay (NCI).

The structures appear in SMILES notation. Values joined by “and” are separate entries in the source; they are usually repeats but may differ in a detail not shown here. Identical values can stand only once.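 Method: 48-hour compound exposure of cells in 96-well plates, five concentrations, linear interpolation of endpoints. Abbreviation: GI50, concentration required for 50% inhibition of growth. TGI marks complete inhibition of growth.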 Bounds are passed on as bounds.

Some test systems named below: A549 NSCLC; COLO 205 colon; K-562 leukemia; NCI-H23 lung; NCI/ADR-RES ovarian; RXF 393 renal; SNB-75 CNS; TK-10 renal; U251 CNS; SK-MEL-5 melanoma; HOP-92 NSCLC.
Experiment in all cases: NCI tumour cell line growth inhibition, 48 h

On to `COC(=O)CCNc1c2ccccc2nc2cccc([N+](=O)[O-])c12`, for which the TGI was 0.132 µM and 0.726 µM in the test with A549 NSCLC; 0.0171 µM with COLO 205 colon; 0.00152 µM in the test with K-562 leukemia; 0.068 µM in the test on NCI/ADR-RES ovarian; 0.00217 µM in the test with RXF 393 renal; 0.0722 µM in the test on SNB-75 CNS. Moreover, the TGI was 0.0312 µM in the test with TK-10 renal; 0.127 µM and 0.0318 µM in the test on U251 CNS. Moreover, the results for the GI50 in the test on NCI-H23 lung, in the test on SNB-75 CNS and in the test with TK-10 renal were 1.26 µM, 0.0185 µM and 0.00304 µM, respectively.
Consider `O=C(N/N=C\c1cccc2ccccc12)Nc1cccc2ccccc12`, for which the TGI in the test with A549 NSCLC was above 100 µM; in the test with COLO 205 colon, above 100 µM; in the test on K-562 leukemia, 15.6 µM; in the test on NCI-H23 lung, above 100 µM; in the test on NCI/ADR-RES ovarian, above 100 µM; in the test with RXF 393 renal, 43.4 µM. The TGI in the test with SK-MEL-5 melanoma was above 100 µM; in the test on SNB-75 CNS it was 35.2 µM; in the test with TK-10 renal it was 56.5 µM; in the test on U251 CNS, 34.9 µM.
As to `Cc1ccc(S(=O)(=O)N/N=C2\CC3CC4CCC2C4C3)cc1` (stereo not given), the TGI in the test with A549 NSCLC, in the test with COLO 205 colon, in the test with HOP-92 NSCLC, in the test with K-562 leukemia, in the test with NCI-H23 lung and in the test on RXF 393 renal was above 100 µM in each case. The TGI with SK-MEL-5 melanoma, in the test with SNB-75 CNS, with TK-10 renal and in the test on U251 CNS was above 100 µM each time.
For the compound `C=CC(C)C1(CCCOCc2ccccc2)C(=S)N2CCC3(CC24CCCC14)OCCO3` (stereo not given), the TGI in the test with A549 NSCLC was above 100 µM; in the test on COLO 205 colon, above 100 µM; in the test on K-562 leukemia it was above 100 µM; in the test on NCI-H23 lung, above 100 µM; in the test on RXF 393 renal, above 100 µM; with SNB-75 CNS, 5.82 µM. The TGI in the test with TK-10 renal and with U251 CNS was above 100 µM throughout.
Take `COC(=O)C1CCC(=O)N1C(c1cc(OC)c(OC)c(OC)c1)c1cccc2ccccc12` (stereo not given): the TGI in the test on A549 NSCLC, with HOP-92 NSCLC, in the test on K-562 leukemia, in the test with NCI/ADR-RES ovarian, in the test with SNB-75 CNS and in the test on TK-10 renal was above 100 µM throughout. Besides, in the test with U251 CNS, the TGI was above 100 µM.
`NCCCNOCCCN`: the TGI in the test on A549 NSCLC, in the test on COLO 205 colon, in the test on HOP-92 NSCLC, in the test on K-562 leukemia, with NCI-H23 lung and in the test on NCI/ADR-RES ovarian was above 100 µM each time. Moreover, the TGI in the test with RXF 393 renal, in the test with SK-MEL-5 melanoma, in the test on TK-10 renal and in the test with U251 CNS was above 100 µM in each case.
On to `COC(=O)c1c2c(cc3c1CC1(Cc4cc5c(c(C(C)=O)c4C1)CCCC5)C3)CCCC2` (stereo not given), for which the TGI with A549 NSCLC, with COLO 205 colon, in the test on HOP-92 NSCLC, with K-562 leukemia, in the test with NCI-H23 lung and in the test with NCI/ADR-RES ovarian was above 100 µM in each case. Moreover, the TGI in the test with RXF 393 renal, in the test with SK-MEL-5 melanoma, in the test on TK-10 renal and with U251 CNS was above 100 µM in each case.
For `Cc1cc(S(=O)(=O)Nc2nncn2-c2ccc(Cl)cc2)c(S)cc1Cl`, the TGI in the test on A549 NSCLC, in the test on COLO 205 colon, in the test on K-562 leukemia, in the test on NCI-H23 lung, with NCI/ADR-RES ovarian and in the test with RXF 393 renal was above 10 µM each time. The TGI in the test on SK-MEL-5 melanoma, in the test with SNB-75 CNS, with TK-10 renal and in the test with U251 CNS was above 10 µM each time.
Regarding `CCOc1ccc(C(C)c2cc3c(cc2OC)OCO3)cc1` (stereo not given), the TGI with A549 NSCLC was 90.8 µM; in the test with HOP-92 NSCLC, 9.93 µM; in the test on NCI-H23 lung, above 100 µM; in the test with RXF 393 renal, 0.539 µM; in the test on SK-MEL-5 melanoma, 1.15 µM; in the test with TK-10 renal, above 100 µM. Moreover, the TGI in the test with U251 CNS was above 100 µM.
`Cc1cc2c(c(S(=O)(=O)c3ccccc3[N+](=O)[O-])c1)NCCC2`: the TGI in the test with A549 NSCLC, with COLO 205 colon, in the test on NCI-H23 lung, in the test on NCI/ADR-RES ovarian, with RXF 393 renal and in the test on SK-MEL-5 melanoma was above 100 µM in each case. Besides, the TGI in the test on SNB-75 CNS, with TK-10 renal and in the test on U251 CNS was above 100 µM each time.
For `CCCOP(=O)(OCCC)OC(C(F)(F)F)C(F)(F)F`, the TGI with K-562 leukemia, in the test on NCI-H23 lung, in the test with RXF 393 renal, in the test on SNB-75 CNS, in the test on TK-10 renal and with U251 CNS was above 100 µM each time.
`O=c1[nH]c2nccn2c2c1SCCN2`: the TGI in the test with A549 NSCLC, with COLO 205 colon, with K-562 leukemia, with NCI-H23 lung, with NCI/ADR-RES ovarian and with RXF 393 renal was above 100 µM in each case. Besides, the TGI in the test with SK-MEL-5 melanoma, in the test on SNB-75 CNS, with TK-10 renal and in the test on U251 CNS was above 100 µM each time.
In the case of `Nc1ccc2ccc(N3CCNCC3)nc2n1`, the TGI with A549 NSCLC, with COLO 205 colon, in the test with HOP-92 NSCLC, in the test on K-562 leukemia, in the test on NCI-H23 lung and in the test with NCI/ADR-RES ovarian was above 100 µM in each case. In addition, the TGI in the test on SNB-75 CNS, in the test with TK-10 renal and with U251 CNS was above 100 µM throughout.
On to `O=C(c1cccs1)N1CCCN(C(=O)c2cccs2)C1=S`, for which the TGI in the test with COLO 205 colon, in the test with K-562 leukemia, in the test on NCI-H23 lung, in the test on NCI/ADR-RES ovarian, with RXF 393 renal and with SK-MEL-5 melanoma was above 100 µM each time. Besides, the TGI in the test on TK-10 renal and in the test with U251 CNS was above 100 µM each time.
